The target of this test is T1, Topo IV from S. aureus (ParE) (Staphylococcus aureus, UniProt P0C1S7).
T1 construct: purchased Inspiralis
In words: Topoisomerase IV inhibitory assay (Inspiralis kit). The format is biochemical. The following applies: staphylococcal Topo IV (ParE), mean of three experiments ± S.D. The protocol: DNA gyrase (type II topoisomerase) and topoisomerase IV (Topo IV; ParE) introduce negative supercoils into DNA, utilizing ATP hydrolysis as a source of energy. They are considered essential bacterial regulatory enzymes that are absent in eukaryotes. Gyrase subunit B (Gyr-B) and Topo IV inhibitory activities were determined using the Inspiralis assay kit (Inspiralis®, UK) on streptavidin-coated 96-well microtiter plates (Thermo Scientific, Germany) according to the manufacturer’s protocols. The assay measures the ability of the tested compounds to inhibit the ATPase activity of both Gyr-B and ParE subunits. Briefly, the plates were hydrated with buffer (20 mM Tris-HCl with pH 7.6, 0.01% w/v BSA, 0.05% v/v Tween 20, 137 mM NaCl) and the biotinylated oligonucleotide was then immobilized. […] The produced fluorescence was measured using a microplate reader (BioTek Synergy, excitation: 485 nm, emission: 535 nm, Germany). […] The PK inhibitory activity of the tested compounds was determined according to the previously reported method. […] The PK activity was measured in a continuous assay coupled to lactate dehydrogenase (LDH) in which the change in absorbance at 340 nm owing to the oxidation of NADH was measured by the microplate reader. […] IC50 values in both assays were determined using seven concentrations of tested compounds. […]

Usually IC50 stands for the concentration that inhibits the measured activity by half.

T1 sequence (P0C1S7 whole entry): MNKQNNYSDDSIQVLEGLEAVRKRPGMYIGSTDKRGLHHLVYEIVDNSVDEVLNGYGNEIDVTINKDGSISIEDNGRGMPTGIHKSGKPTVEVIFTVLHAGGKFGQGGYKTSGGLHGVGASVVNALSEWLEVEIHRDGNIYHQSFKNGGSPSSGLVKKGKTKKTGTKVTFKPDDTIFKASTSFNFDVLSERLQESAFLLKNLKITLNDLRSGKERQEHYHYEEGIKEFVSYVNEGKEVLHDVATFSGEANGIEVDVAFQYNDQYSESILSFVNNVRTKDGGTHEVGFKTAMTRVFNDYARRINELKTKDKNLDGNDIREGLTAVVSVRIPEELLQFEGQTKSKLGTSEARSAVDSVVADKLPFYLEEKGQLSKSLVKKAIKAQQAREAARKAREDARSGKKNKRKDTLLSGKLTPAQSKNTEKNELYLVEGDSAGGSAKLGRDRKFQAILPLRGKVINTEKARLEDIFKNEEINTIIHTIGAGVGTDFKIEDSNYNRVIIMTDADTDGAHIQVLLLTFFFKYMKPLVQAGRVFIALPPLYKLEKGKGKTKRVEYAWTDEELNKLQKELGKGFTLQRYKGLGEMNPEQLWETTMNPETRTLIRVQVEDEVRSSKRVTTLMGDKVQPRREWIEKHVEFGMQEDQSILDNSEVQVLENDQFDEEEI
T1 sequence (P0C1U9 whole entry partner): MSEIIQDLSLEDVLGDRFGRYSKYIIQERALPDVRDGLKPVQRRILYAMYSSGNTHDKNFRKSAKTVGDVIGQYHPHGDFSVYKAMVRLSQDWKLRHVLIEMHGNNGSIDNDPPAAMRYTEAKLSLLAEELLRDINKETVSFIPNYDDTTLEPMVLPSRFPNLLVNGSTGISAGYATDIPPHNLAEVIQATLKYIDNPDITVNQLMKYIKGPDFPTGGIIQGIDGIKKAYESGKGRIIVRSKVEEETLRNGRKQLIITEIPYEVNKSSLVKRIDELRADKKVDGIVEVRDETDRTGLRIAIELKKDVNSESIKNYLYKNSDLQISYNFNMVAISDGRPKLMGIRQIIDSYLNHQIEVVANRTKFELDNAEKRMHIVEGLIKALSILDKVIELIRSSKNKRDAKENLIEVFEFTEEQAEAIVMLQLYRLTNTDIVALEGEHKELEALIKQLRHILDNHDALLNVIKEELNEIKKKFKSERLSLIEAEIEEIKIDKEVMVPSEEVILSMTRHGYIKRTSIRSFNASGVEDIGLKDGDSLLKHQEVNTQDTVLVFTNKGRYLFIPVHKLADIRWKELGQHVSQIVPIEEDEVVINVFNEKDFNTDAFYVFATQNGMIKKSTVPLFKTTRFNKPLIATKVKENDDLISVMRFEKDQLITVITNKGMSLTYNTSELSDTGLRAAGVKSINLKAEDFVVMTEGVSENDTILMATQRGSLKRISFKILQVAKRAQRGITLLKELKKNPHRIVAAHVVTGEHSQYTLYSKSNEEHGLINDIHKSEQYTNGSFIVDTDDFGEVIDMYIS

`CO[C@@H]1[C@@H](OC(N)=O)[C@@H](O)[C@H](Oc2ccc3c(O)c(NC(=O)c4ccc(O)c(CC=C(C)C)c4)c(=O)oc3c2C)OC1(C)C` [Novobiocin]: the IC50 is 220 ± 10 nM.
